Reference: patent US8809310B2, “Use of rasagiline for the treatment of multiple system atrophy” (priority 2006, dated 2014)
Where two headings read alike, the source gives them in different places.

Legend:
[1] = tested on: (PLP) α-synuclein transgenic mice; settings: MSA mice (3-NP +), N=10
Text: A suitable model for MSA is described by Stefanova et al. (Am. J. Pathol. March 2005, 166(3):869-76; Trends Neurosci. 2005, 28(9):501-6). This model acts by inducing oxidative stress in transgenic mice with oligodendroglial α-synuclein expression. […] The selective neuronal cell death pattern typical of MSA is achieved by combining mitochondrial inhibition by 3-nitropropionic acid (3-NP).
A total of 36 (PLP) α-synuclein transgenic mice over 6 months of age were used.
Chronic intoxication with 3-NP was done according to a previously used paradigm pathiology (i.e. 4×10 mg/kg, 4×20 mg/kg, 4×40 mg/kg, 4×50 mg/kg intraperitoneal injections every 12th hour for a period of two weeks) to model MSA pathology.
The mice were further divided into groups as follows: Control group (saline tested, n=10), low dose rasagiline group (0.6 mg/kg; n=10) and high dose rasagiline group ([…]; n=10). Rasagiline was delivered subcutaneously every 24 hours starting 24 hours one week before the intoxication with 3-NP and lasting for an additional week, i.e., for a total period of 4 weeks.

MAO-A = MAO-A (Mus musculus, UniProt Q64133); settings: for MAO-A activity (mean dpm ± SD): MSA mice, brain homogenate, 14C-HT 100 μM, end of experiment
Method: (§1) Efficacy of Rasagiline treatment was determined by biochemical measurement of the inhibition of MAO-A and MAO-B activity in the different treatment groups. Two mice per group were sacrificed under deep thiopental anesthesia by cervical […]. Brains were immediately removed and snap-frozen in liquid nitrogen and further stored at −80° C. Tissue homogenates were preincubated with clorgyline or deprenyl in order to inhibit MAO-A or MAO-B respectively. Incubation was carried on with 14C-labeled PEA (10 μM) for MAO-B determination and 14C-HT (100 μM) for MAO-A determination. Reaction was stopped by acidification and labeled metabolites were extracted into toluene/ethyl acetate and counted by beta-counter.

MAO-B = MAO-B (Mus musculus, UniProt Q8BW75); settings: for MAO-B activity (mean dpm ± SD): MSA mice, brain homogenate, 14C-PEA 10 μM, end of experiment
Method: as §1

[2] = tested on: (PLP) α-synuclein transgenic mice; settings: fourth week (day 25)
Method: The pole test (Id.; and Matsuura et al., Pole test is a useful method for evaluating the mouse movement disorder caused by striatal dopamine depletion, Journal of Neuroscience Methods 1997; 73:45-8) was performed on day 17 and day 25 of the experiment. Each mouse was habituated to the test the day before. A wooden vertical pole with rough surface, 1 cm wide and 50 cm high was applied. The mouse was placed with the head up at the top of the pole and the time for turning downwards (Tturn) as well as the total time for climbing down the pole until the mouse reached the floor with the four paws (Ttotal) was taken in 5 trials. The best performance of all the five trials was kept for the statistical analysis (Fernagut et al., In vivo models of multiple system atrophy, Mov Disord. 2005; 20 Suppl 12:S57-S63). If a mouse was unable to perform the test, a default value of 120 s was taken into account.

[3] = tested on: (PLP) α-synuclein transgenic mice; settings: any of the time points studied (day 16, day 26)
Method: To test the locomotor activity of the mice we applied the Flex Field Activity System, (San Diego Instruments, San Diego, Calif.) which allows monitoring and real-time counting of horizontal and vertical locomotor activity by 544 photo-beam channels. Mice were placed in the center of the open field (40.5×40.5×36.5 cm) and tested for a 15 min period always at the same time of the day (5.00 p.m.). The tests were performed in a dark room that was completely isolated from external noises and light during the test period. The sum of counts in the horizontal and vertical plane at day 16 and on day 26 of the experiment was further analyzed.

[4] = tested on: (PLP) α-synuclein transgenic mice
Method: The stride length of the hindlimbs of the mice was measured at baseline and before sacrificing them after a habituation to the test for 3 days before its performance. The limbs of each animal were wetted with a non-toxic food color and the mouse was let to run on a strip of paper (42 cm long, 4.5 cm wide) down a bright corridor towards a dark goal box. After four runs, the stride length of the forelimbs and the hindlimbs on each side was measured, excluding the beginning (7 cm) and the end (7 cm) of the run. The mean stride length for was determined.
Stride length test was performed on day 18-19 and day 27-28 after first 3-NP intoxication.

[5] = tested on: (PLP) α-synuclein transgenic mice; remark: listed apart in the source
Method: Neuropathological examination of the brains was performed after transcardial perfusion of 4% paraformaldehyde (PFA) under deep thiopental anesthesia. Brains were quickly removed, postfixed in the same fixative for 1 hour at 4° C., and then kept in 25% sucrose solution until they sunk. The brains were slowly frozen in with 2-methylbutan and kept at −80° C. until processing. Serial sections throughout the whole brain were cut on a freezing microtome (Leica, Nussloch, Germany).
(§2) Sections underwent the following immunohistochemical stainings: tyrosinehydroxylase antibody (Sigma) used to visualize dopaminergic neurons in SNc, dopamine and cyclic adenosine 3′,5′-monophosphate-regulated phosphoprotein 32 (DARPP-32)(New York Hospital-Cornell Medical Centre) used to visualize medium sized spiny neurons in striatum and Purkinje cells in cerebellar cortex, Glial Fibrillary Acidic Protein (GFAP)(Roche Diagnostics GmBH) used to visualize astroglial reaction, CD11b (Serotec) used to visualize microglial reaction and Bcl-2, Bcl-X1 and Bax apoptic/anti-apoptotic markers. One full series was stained with cresyl violet.
(§3) The following antibodies were used in this study: monoclonal anti-DARPP-32 (1:2000), monoclonal anti-TH (Sigma, St. Louis, Mo., 1:500), monoclonal anti-GFAP (Roche, Vienna, Austria 1:100), monoclonal anti-CD11b (Serotec, Oxford, UK, 1:100), polyclonal anti-activated capase 3 (Transduction Laboratories, Lexington, Ky., 1:200), monoclonal anti-Bax (Santa Cruz Biotechnology, 1:100), monoclonal anti-Bc12 (Santa Cruz Biotechnology, 1:100), and monoclonal anti-BclX (Chemicon, Temecula, Calif., 1:100). Secondary antibodies were biotinylated horse anti-mouse IgG, goat anti-rat IgG, or goat anti-rabbit IgG (Vector, Burlingame, Calif.). Immunohistochemical reaction was developed with 3,3′-diaminobenzidine.
All morphometric analyses were done blinded to the treatment of the animal's observer. Stereology was applied using a computer-assisted image analysis system (Nikon E-800 microscope, Nikon digital camera DXM 1200; Stereo Investigator Software, MicroBrightField Europe e.K., Magdeburg, Germany). […] Purkinje cells in the cerebellum and glial reaction throughout the entire brain are analyzed to the Paxinos and Franklin mouse brain atlas (1997, Academic Press, San Diego). Purkinje cells were counted in a region outlined to include only the Purkinje cell layer (German et al., Degeneration of neurons and glia in the Niemann-Pick C mouse is unrelated to the low-density lipoprotein receptor. Neuroscience, 2001; 105:999-1005).

[6] = tested on: (PLP) α-synuclein transgenic mice; settings: mouse, in vivo
Text: as §2, §3

[7] = tested on: (PLP) α-synuclein transgenic mice; settings: daily rating, whole experimental period
Method: Behavioral tests were performed blindly to the treatment status according to the following procedures and described in Fernagut et al.: clinical scale, stride length, spontaneous locomotor activity.
The groups were evaluated daily during the whole experimental period with a general motor score according to a previously published rating scale.
A previously described rating scale (Fernagut et al., Subacute systemic 3-nitropropionic acid intoxication induces a distinct motor disorder in adult C57B1/6 mice: Behavioural and histopathological characterization, Neuroscience 2002; 114:1005-17) was used for evaluation of hindlimb clasping, general locomotor activity, hindlimb dystonia, truncal dystonia and postural challenge response (0, normal; 1 slightly disturbed, and 2 markedly disabled). […] A total daily score per animal for each session was determined as well as a total sum score per animal per group for the whole testing period.

[8] = tested on: early Parkinson's disease patients; settings: rasagiline-treated subjects; cited from earlier work
[9] = 2.5 mg/kg daily for 4 weeks, without reaching neuronal numbers of healthy controls

Sequence of MAO-B (Q8BW75 whole entry): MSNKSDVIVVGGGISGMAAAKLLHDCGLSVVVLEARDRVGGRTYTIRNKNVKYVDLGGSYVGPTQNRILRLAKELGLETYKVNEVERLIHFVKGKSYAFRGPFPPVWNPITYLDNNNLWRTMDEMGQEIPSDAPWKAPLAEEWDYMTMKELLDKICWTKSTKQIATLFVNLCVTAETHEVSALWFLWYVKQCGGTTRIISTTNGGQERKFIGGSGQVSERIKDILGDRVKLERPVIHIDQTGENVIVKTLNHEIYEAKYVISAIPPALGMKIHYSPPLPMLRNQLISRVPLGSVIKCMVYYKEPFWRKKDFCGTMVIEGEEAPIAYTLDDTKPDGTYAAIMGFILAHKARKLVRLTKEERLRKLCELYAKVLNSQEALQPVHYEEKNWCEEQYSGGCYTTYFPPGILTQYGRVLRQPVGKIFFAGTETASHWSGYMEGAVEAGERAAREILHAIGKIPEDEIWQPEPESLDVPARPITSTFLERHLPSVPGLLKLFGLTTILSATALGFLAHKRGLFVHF
Sequence of MAO-A (Q64133 whole entry): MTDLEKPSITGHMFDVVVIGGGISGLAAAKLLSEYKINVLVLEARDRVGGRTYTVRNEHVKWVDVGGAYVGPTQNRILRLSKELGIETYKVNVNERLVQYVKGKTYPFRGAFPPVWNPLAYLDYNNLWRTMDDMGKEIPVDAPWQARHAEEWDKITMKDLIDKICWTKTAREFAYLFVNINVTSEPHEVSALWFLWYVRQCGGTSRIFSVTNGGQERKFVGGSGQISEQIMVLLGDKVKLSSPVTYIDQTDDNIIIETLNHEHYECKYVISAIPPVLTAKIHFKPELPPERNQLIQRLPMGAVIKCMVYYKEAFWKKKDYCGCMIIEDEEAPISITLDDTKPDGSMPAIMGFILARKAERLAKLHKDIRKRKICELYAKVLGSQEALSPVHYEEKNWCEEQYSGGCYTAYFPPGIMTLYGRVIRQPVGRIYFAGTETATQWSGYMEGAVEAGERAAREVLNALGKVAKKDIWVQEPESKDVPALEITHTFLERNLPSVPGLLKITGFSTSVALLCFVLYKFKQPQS

C#CCN[C@@H]1CCc2ccccc21 [Rasagiline, R(+)-N-propargyl-1-aminoindan]
Mortality N (%) ([1]; Rasagiline 0.8 mg/kg b.w.): 2 (20) N (%) | Mortality N (%) ([1]; Rasagiline 2.5 mg/kg b.w.): 1 (10) N (%) | MAO-A activity (mean dpm ± SD) (MAO-A; Rasagiline 0.8 mg/kg): 1463.10 ± 219 dpm | MAO-A activity (mean dpm ± SD) (MAO-A; Rasagiline 2.5 mg/kg): 724.06 ± 65 dpm | inhibition of MAO activity (MAO-A) (MAO-A; both concentrations): significant inhibition | MAO-B activity (mean dpm ± SD) (MAO-B; Rasagiline 0.8 mg/kg): 370.01 ± 321 dpm | MAO-B activity (mean dpm ± SD) (MAO-B; Rasagiline 2.5 mg/kg): 80.94 ± 14 dpm | inhibition of MAO activity (MAO-B) (MAO-B; both concentrations): significant inhibition | pole test T-total (prolonged movement time) [2]: significantly reduced | pole test T-turn (prolonged movement time) [2]: significantly reduced | open field activity [3]: observed neither upon open field activity | rearing behavior [3]: nor on rearing behavior | stride length ([4]; day 18-19): reversed shortened stride length | stride length ([4]; day 27-28): reversed stride length impairment | protection of Purkinje cells [5, 9]: partial protection | protection of neurons of the inferior olives [5, 9]: partial protection | protection of pontine nuclei against 3-NP intoxication ([5]; mouse, in vivo): completely protected | loss of striatal DARPP-32-immunoreactive medium spiny neurons ([5]; striatum, did not reach levels of non-intoxicated controls): partially prevented | loss of TH-immunopositive neurons in SNc ([5]; substantia nigra pars compacta): completely protected | CD11b staining pattern (microglial activation), treated vs untreated mice [6]: No differences | GFAP staining pattern (astroglial activation), treated vs untreated mice [6]: No differences | general motor impairment (general motor score) [7]: significant improvement | most commonly reported adverse events [8]: pain, headache and dizziness | side effects typical of other dopaminergic medications (hallucinations, somnolence, edema, nausea, vomiting, diarrhea) [8]: infrequently reported
